Experimental data taken from the supplement of paper PMC7661543.
± gives the standard deviation of the averaged measurements.

Tests used:
Experiment in all cases: relative cell number vs DMSO control (72 h) (% of DMSO); higher = less growth inhibition (more cells)
Conditions in all cases: sgRNA knockout: sgNT
BT-20 = tested on: BT-20
Experimental: (§1)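 QMAP-Seq: a pool of 5 breast cancer cell lines (ZR-75-1, SKBR3, HCC-38, MDA-MB-231, BT-20), each carrying 12 doxycycline-inducible Cas9 sgRNA perturbations (11 knockouts plus non-targeting sgNT), was treated with compounds for 72 h at four 10-fold doses (10 nM-10 uM or 1 nM-1 uM range). Barcodes were amplified and sequenced, and cell number was interpolated from 293T spike-in standard curves. The result is expressed as % of the median of DMSO wells. Two biological replicates.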

HCC-38 = tested on: HCC-38
Experimental: as §1

MDA-MB-231 = tested on: MDA-MB-231
Experimental: as §1

SKBR3 = tested on: SKBR3
Experimental: as §1

ZR-75-1 = tested on: ZR-75-1
Experimental: as §1

Row | SMILES | relative cell number (BT-20; 10 nM) | relative cell number (BT-20; 100 nM) | relative cell number (BT-20; 1000 nM) | relative cell number (BT-20; 10000 nM) | relative cell number (HCC-38; 10 nM) | relative cell number (HCC-38; 100 nM) | relative cell number (HCC-38; 1000 nM) | relative cell number (HCC-38; 10000 nM) | relative cell number (MDA-MB-231; 10 nM) | relative cell number (MDA-MB-231; 100 nM) | relative cell number (MDA-MB-231; 1000 nM) | relative cell number (MDA-MB-231; 10000 nM) | relative cell number (SKBR3; 10 nM) | relative cell number (SKBR3; 100 nM) | relative cell number (SKBR3; 1000 nM) | relative cell number (SKBR3; 10000 nM) | relative cell number (ZR-75-1; 10 nM) | relative cell number (ZR-75-1; 100 nM) | relative cell number (ZR-75-1; 1000 nM) | relative cell number (ZR-75-1; 10000 nM) | relative cell number (BT-20; 1 nM) | relative cell number (HCC-38; 1 nM) | relative cell number (MDA-MB-231; 1 nM) | relative cell number (SKBR3; 1 nM) | relative cell number (ZR-75-1; 1 nM)
1 | COc1cc(-n2c(=S)[nH]c3ccccc3c2=O)c(Cl)cc1Cl [Mdivi1] | 76.5 ± 8.6 | 98.8 ± 5.6 | 83.6 ± 2.9 | 84 ± 3.7 | 95.3 ± 11 | 93.4 ± 13 | 100 ± 10 | 83.1 ± 20 | 93.3 ± 18 | 84.9 ± 27 | 94.7 ± 11 | 50.1 ± 5.6 | 76 ± 18 | 104 ± 6.3 | 60 ± 1.5 | 44.2 ± 5.5 | 135 ± 44 | 77.9 ± 7.1 | 80.6 ± 2.8 | 41.5 ± 26 | – | – | – | – | –
2 | COC(=O)Nc1nc2cc(C(=O)c3ccccc3)ccc2[nH]1 [Mebendazole] | 87.1 ± 7.3 | 78.9 ± 21 | 25 ± 7.1 | 20.6 ± 6.8 | 97.2 ± 18 | 83.2 ± 4.6 | 18.2 ± 7.5 | 19.9 ± 0.56 | 110 ± 10 | 79.4 ± 38 | 31.4 ± 12 | 26.5 ± 1.1 | 96.3 ± 10 | 59.8 ± 7.3 | 10.6 ± 9.4 | 7.21 ± 5.9 | 71.7 ± 21 | 64.7 ± 17 | 36.8 ± 8.2 | 14 ± 8.6 | – | – | – | – | –
3 | CN(Cc1cnc2nc(N)nc(N)c2n1)c1ccc(C(=O)N[C@@H](CCC(=O)O)C(=O)O)cc1 [Methotrexate] | 98.43 ± 0.61 | 80.6 ± 3.4 | 51.2 ± 16 | 37.8 ± 12 | 105 ± 3.4 | 56 ± 1.1 | 41.2 ± 0.74 | 35.2 ± 0.52 | 97.5 ± 4.3 | 101 ± 17 | 91.2 ± 9.4 | 33.9 ± 8.7 | 116 ± 42 | 41 ± 1.5 | 22.1 ± 12 | 25.5 ± 6.4 | 89.6 ± 11 | 38.6 ± 12 | 40.6 ± 11 | 36.9 ± 8 | – | – | – | – | –
4 | O=C1c2c(O)ccc(O)c2C(=O)c2c(NCCNCCO)ccc(NCCNCCO)c21 [Mitoxantrone] | 55 ± 13 | 39.2 ± 9.2 | 19.5 ± 5 | 5.45 ± 2 | 33.9 ± 2.3 | 30.46 ± 0.2 | 7.76 ± 0.68 | 7.21 ± 2.4 | 20.8 ± 7.3 | 17.3 ± 0.44 | 4.896 ± 0.008 | 6.65 ± 4.1 | 37.3 ± 21 | 22.3 ± 5.1 | 4.5 ± 0.26 | 4.94 ± 3.2 | 37.2 ± 4 | 22.3 ± 12 | 13.4 ± 1.2 | 7.6 ± 0.68 | – | – | – | – | –
5 | CCNC(=O)c1noc(-c2cc(C(C)C)c(O)cc2O)c1-c1ccc(CN2CCOCC2)cc1 [NVPAUY922] | 81.1 ± 1.5 | 48 ± 3.7 | 37.9 ± 5.3 | – | 67.6 ± 2.1 | 31.7 ± 5.1 | 30 ± 6 | – | 71.4 ± 5.7 | 16 ± 4.2 | 9.36 ± 1.3 | – | 78.6 ± 19 | 30 ± 8.8 | 18.5 ± 5.7 | – | 89.8 ± 44 | 27.1 ± 1.1 | 25.7 ± 6.9 | – | 96.7 ± 24 | 112 ± 16 | 111 ± 40 | 116 ± 31 | 107 ± 6.7
6 | CC1(C)CCC(c2ccc(Cl)cc2)=C(CN2CCN(c3ccc(C(=O)NS(=O)(=O)c4ccc(N[C@H](CCN5CCOCC5)CSc5ccccc5)c(S(=O)(=O)C(F)(F)F)c4)cc3)CC2)C1 [Navitoclax] | 85.4 ± 11 | 90.6 ± 3.6 | 94.8 ± 3.5 | 78 ± 12 | 96.9 ± 14 | 102 ± 12 | 76.6 ± 12 | 47.9 ± 1.3 | 93.9 ± 27 | 108 ± 6.7 | 93.9 ± 13 | 52.5 ± 7.4 | 74.6 ± 24 | 117 ± 33 | 50 ± 18 | 75.1 ± 14 | 86.5 ± 10 | 95.5 ± 39 | 105 ± 11 | 81.5 ± 24 | – | – | – | – | –
7 | CN1C(=O)C(Cc2c[nH]c3ccccc23)NC1=S (stereo not given) [Necrostatin1] | 110 ± 16 | 63.8 ± 8.2 | 82.9 ± 0.53 | 114 ± 14 | 110 ± 12 | 92.5 ± 3.2 | 105 ± 2.8 | 91.2 ± 2.3 | 97.3 ± 20 | 79.2 ± 7.1 | 97.7 ± 25 | 64.1 ± 3 | 89.8 ± 11 | 92.2 ± 8.2 | 60.4 ± 1.4 | 68.6 ± 3.7 | 76.9 ± 14 | 71.3 ± 29 | 78.3 ± 31 | 84.6 ± 35 | – | – | – | – | –
8 | COc1nc(N)nc2c1ncn2[C@@H]1O[C@H](CO)[C@@H](O)[C@@H]1O [Nelarabine] | 90.5 ± 4.3 | 85.5 ± 1.7 | 94.9 ± 26 | 98 ± 15 | 113 ± 3.4 | 96.7 ± 16 | 99 ± 21 | 109 ± 4.1 | 82 ± 19 | 95.5 ± 4.6 | 104 ± 23 | 72 ± 26 | 100 ± 31 | 85.8 ± 2.9 | 101 ± 6.9 | 91.7 ± 4.2 | 85.5 ± 33 | 74.6 ± 23 | 81.7 ± 5.5 | 109 ± 7.7 | – | – | – | – | –
9 | CCOc1cc2ncc(C#N)c(Nc3ccc(OCc4ccccn4)c(Cl)c3)c2cc1NC(=O)/C=C/CN(C)C [Neratinib] | 86.8 ± 7.5 | 99.2 ± 16 | 79.7 ± 16 | 51.4 ± 2.7 | 85 ± 2.7 | 101 ± 7 | 95.9 ± 12 | 50 ± 3.4 | 98.3 ± 10 | 74.1 ± 4 | 91.24 ± 0.32 | 46.6 ± 1.1 | 92.7 ± 6.7 | 70.3 ± 1.5 | 27.1 ± 5.3 | 17.2 ± 0.58 | 100 ± 32 | 73.9 ± 1.6 | 70.7 ± 6 | 47.4 ± 0.48 | – | – | – | – | –
10 | O=C(Nc1ccc([N+](=O)[O-])cc1Cl)c1cc(Cl)ccc1O [Niclosamide] | 91.7 ± 20 | 109 ± 7 | 98.5 ± 3.8 | 55 ± 12 | 92.2 ± 13 | 92.62 ± 0.79 | 113 ± 7.2 | 46.5 ± 11 | 115 ± 21 | 119 ± 34 | 97.4 ± 20 | 37.7 ± 14 | 108 ± 7.6 | 83.6 ± 3.2 | 82.1 ± 19 | 59.8 ± 2.1 | 88.4 ± 14 | 104 ± 61 | 102 ± 80 | 50.2 ± 10 | – | – | – | – | –
11 | Cc1cn(-c2cc(NC(=O)c3ccc(C)c(Nc4nccc(-c5cccnc5)n4)c3)cc(C(F)(F)F)c2)cn1 [Nilotinib] | 99.6 ± 18 | 87.1 ± 14 | 94.2 ± 22 | 63.1 ± 6.3 | 93.4 ± 2.5 | 102 ± 16 | 98.8 ± 11 | 93.7 ± 30 | 80.9 ± 6.4 | 118 ± 19 | 88.1 ± 1.5 | 63.5 ± 28 | 79.5 ± 24 | 88.7 ± 0.9 | 98.3 ± 25 | 13.8 ± 12 | 75.2 ± 1.9 | 94.4 ± 29 | 107 ± 2.8 | 35.1 ± 20 | – | – | – | – | –
12 | O=[N+]([O-])c1ccc(O)c2ncccc12 [Nitroxoline] | 93.1 ± 19 | 87.9 ± 43 | 114 ± 13 | 56.1 ± 6.1 | 86.5 ± 3.6 | 88.83 ± 0.36 | 107 ± 14 | 45.9 ± 0.87 | 54.2 ± 9.2 | 103 ± 22 | 88.3 ± 10 | 37.7 ± 9.7 | 82.9 ± 23 | 91.1 ± 3.5 | 43.59 ± 0.14 | 40 ± 6.6 | 86.7 ± 6.9 | 94.1 ± 17 | 97.4 ± 51 | 33.4 ± 19 | – | – | – | – | –
